# Tests used:
# [1] = tested on: H460 NSCLC; experiment: H460 NSCLC xenograft, tumor growth delay; format: in vivo, female athymic nude mice
# Source text: (§1) The models evaluated included MV522, A549 and H460 NSCLC. […] The experiments used a tumor growth delay (TGD) endpoint based on median time to endpoint, i.e., tumor volume of 1000-2000 mm^3, and treatments were compared to untreated controls using the Logrank test for statistical significance.
# [2] = cited from earlier work
# [3] = tested on: A549 NSCLC; experiment: A549 NSCLC xenograft, tumor growth delay; format: in vivo, female athymic nude mice
# Source text: as §1
# [4] = Oral pharmacokinetics, all species examined; format: in vivo; details: orally administered; mice, rats, dogs, and monkeys
# Description: Peak plasma concentrations were achieved between 1 and 3 hours after a dose of 5 mg/kg. […] Oral availability was greatest in rodent, and was reduced in dogs and monkeys (59 and 34% respectively).
# [5] = tested on: MV522 NSCLC; experiment: in vivo; details: MV522
# Source text: as §1
# [6] = in vivo; details: female, athymic nude, mouse, in vivo, po
# Source text: as §1
# [7] = patients taking erlotinib; cited from earlier work
compound,measurement,setting,value
CC(=O)O[C@@]12CO[C@@H]1C[C@H](O)[C@@]1(C)C(=O)[C@H](O)C3=C(C)[C@@H](OC(=O)[C@H](O)[C@@H](NC(=O)OC(C)(C)C)c4ccccc4)C[C@@](O)([C@@H](OC(=O)c4ccccc4)[C@H]21)C3(C)C [Docetaxel],Tumor growth delay (TGD),[1]; 25 mg/kg iv weekly x3,10.8 days
same,"Tumor growth delay (TGD), percent",[1]; 25 mg/kg iv weekly x3,80%
same,Solubility in water,[2],practically insoluble
"Cc1ccc(-c2cc(C(F)(F)F)nn2-c2ccc(S(N)(=O)=O)cc2)cc1 [celecoxib, reference compound]",Tumor growth delay (TGD),[3]; 100 mg/kg,15.4 days
same,"Tumor growth delay (TGD), percent",[3]; 100 mg/kg,39%
same,Tumor growth delay (TGD),[1]; COX-2 inhibitor monotherapy,3.0 days
same,"Tumor growth delay (TGD), percent",[1]; COX-2 inhibitor monotherapy,22%
CCOc1ccc(-c2cc(C)cn2-c2ccc(S(N)(=O)=O)cc2)cc1,Tumor growth delay (TGD),"[3]; at its MTD, oral daily",24.3 days
same,"Tumor growth delay (TGD), percent","[3]; at its MTD, oral daily",62%
same,Tumor growth delay (TGD),[1]; COX-2 inhibitor monotherapy,4.0 days
same,"Tumor growth delay (TGD), percent",[1]; COX-2 inhibitor monotherapy,30%
same,Absorption after oral administration,[4],rapidly absorbed
same,Tumor growth delay (TGD),[5]; 10 mg/kg oral daily,19.1 days
same,"Tumor growth delay (TGD), percent",[5]; 10 mg/kg oral daily,57%
same,Tumor growth delay (TGD),[5]; 30 mg/kg (MTD) oral daily,32.1 days
same,"Tumor growth delay (TGD), percent",[5]; 30 mg/kg (MTD) oral daily,96%
same,MTD,[6],30 mg/kg
"C#Cc1cccc(Nc2ncnc3cc(OCCOC)c(OCCOC)cc23)c1 [erlotinib, N-(3-ethynylphenyl)-6,7-bis(2-methoxyethoxy)quinazolin-4-amine]","Patients with common side effects (rash, diarrhea, poor appetite, fatigue, shortness of breath, cough, nausea and vomiting)",[7],greater than 30 % of patients

# Source: patent US20110301209A1, “METHODS AND COMPOSITIONS FOR THE TREATMENT OF CANCER, TUMORS, AND TUMOR-RELATED DISORDERS” (TRAGARA PHARMACEUTICALS, INC., priority 2007, published 2011)
